Assay results as given in ChEMBL document CHEMBL1156467, “Inhibition of GLI-mediated transcription and tumor cell growth by small-molecule antagonists” (Proc Natl Acad Sci U S A, 2007).
pIC50: −log10 of the molar value. Active and inactive are the calls of the source. The calls are words filed in the database; no cut-off is given here.

Legend:
[1] = Reduction of expression of PTCH mRNA in human 22Rv cells; assay type: functional, cell-based
[2] = biological target: T1, Zinc finger protein GLI1 (Homo sapiens) (UniProt P08151); assay: Inhibition of GLI via PKA activation in HEK293 cells; assay type: cell-based
T1 sequence (whole entry): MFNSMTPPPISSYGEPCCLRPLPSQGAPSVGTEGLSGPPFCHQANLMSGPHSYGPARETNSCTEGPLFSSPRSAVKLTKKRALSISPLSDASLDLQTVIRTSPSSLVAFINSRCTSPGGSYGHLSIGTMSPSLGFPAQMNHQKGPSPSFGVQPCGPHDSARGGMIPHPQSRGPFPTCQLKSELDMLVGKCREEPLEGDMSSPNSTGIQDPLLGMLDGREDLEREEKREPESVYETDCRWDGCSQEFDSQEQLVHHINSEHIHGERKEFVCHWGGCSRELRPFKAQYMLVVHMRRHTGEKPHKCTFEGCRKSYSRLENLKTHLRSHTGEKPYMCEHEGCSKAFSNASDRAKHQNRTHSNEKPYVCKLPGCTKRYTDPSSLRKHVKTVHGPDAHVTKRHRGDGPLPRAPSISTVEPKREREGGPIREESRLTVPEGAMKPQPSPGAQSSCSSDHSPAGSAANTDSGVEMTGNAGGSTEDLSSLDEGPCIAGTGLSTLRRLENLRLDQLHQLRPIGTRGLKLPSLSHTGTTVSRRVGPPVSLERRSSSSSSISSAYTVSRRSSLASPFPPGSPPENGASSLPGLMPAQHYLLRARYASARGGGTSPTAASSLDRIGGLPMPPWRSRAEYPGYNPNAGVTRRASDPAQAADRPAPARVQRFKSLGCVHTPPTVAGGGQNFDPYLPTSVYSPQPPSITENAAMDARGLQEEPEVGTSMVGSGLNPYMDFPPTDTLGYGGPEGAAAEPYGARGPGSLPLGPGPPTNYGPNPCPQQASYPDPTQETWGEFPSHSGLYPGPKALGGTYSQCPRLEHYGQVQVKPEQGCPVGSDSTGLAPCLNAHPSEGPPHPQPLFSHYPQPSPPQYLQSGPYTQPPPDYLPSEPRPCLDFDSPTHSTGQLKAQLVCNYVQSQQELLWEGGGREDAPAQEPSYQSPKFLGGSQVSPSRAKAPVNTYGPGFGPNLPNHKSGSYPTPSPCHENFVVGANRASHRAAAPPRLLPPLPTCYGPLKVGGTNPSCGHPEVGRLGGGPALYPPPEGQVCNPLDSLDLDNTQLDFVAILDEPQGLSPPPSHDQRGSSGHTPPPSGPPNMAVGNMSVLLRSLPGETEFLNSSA

[3] = biological target: T1, Zinc finger protein GLI1 (Homo sapiens); assay: Alteration in DNA binding to GLI1 in HEK293 cells; assay type: cell-based
HEK293 [4] = assay: Inhibition of nuclear accumulation of GLI mutant in HEK293 cells; assay type: functional, cell-based; settings: Homo sapiens
HEK293 [5] = assay: Inhibition of nuclear accumulation of wild type GLI in HEK293 cells; assay type: functional, cell-based; settings: Homo sapiens
NIH3T3 [6] = assay: Effect on Hedgehog signaling in mouse NIH3T3 cells assessed as activation of TNF signaling; assay type: functional, cell-based
NIH3T3 [7] = assay: Effect on Hedgehog signaling in mouse NIH3T3 cells assessed as activation of NF kappaB; assay type: functional, cell-based
NIH3T3 [8] = assay: Effect on Hedgehog signaling in mouse NIH3T3 cells assessed as transactivation of glucocorticoid receptor; assay type: functional, cell-based
NIH3T3 [9] = assay: Effect on Hedgehog signaling in mouse NIH3T3 cells assessed as transactivation of Ras-Raf-Mek-Mapk cascade; assay type: functional, cell-based
[10] = Antiproliferative activity against Ptch deficient mouse embryonic fibroblast at 10 uM by BrdU incorporation; assay type: functional
[11] = biological target: T1, Zinc finger protein GLI1 (Homo sapiens); assay: Reduction of GLI1 mediated transcription in HEK293 cells by luciferase reporter assay; assay type: cell-based
[12] = biological target: Zinc finger protein GLI2 (Homo sapiens) (UniProt P10070); assay: Reduction of GLI2 mediated transcription in HEK293 cells by luciferase reporter assay; assay type: cell-based
[13] = biological target: T2, Zinc finger protein GLI1 (Mus musculus) (UniProt P47806); assay: Inhibition of GLI1 induced hedgehog signaling in mouse NIH3T3 cells; assay type: cell-based
T2 sequence (whole entry): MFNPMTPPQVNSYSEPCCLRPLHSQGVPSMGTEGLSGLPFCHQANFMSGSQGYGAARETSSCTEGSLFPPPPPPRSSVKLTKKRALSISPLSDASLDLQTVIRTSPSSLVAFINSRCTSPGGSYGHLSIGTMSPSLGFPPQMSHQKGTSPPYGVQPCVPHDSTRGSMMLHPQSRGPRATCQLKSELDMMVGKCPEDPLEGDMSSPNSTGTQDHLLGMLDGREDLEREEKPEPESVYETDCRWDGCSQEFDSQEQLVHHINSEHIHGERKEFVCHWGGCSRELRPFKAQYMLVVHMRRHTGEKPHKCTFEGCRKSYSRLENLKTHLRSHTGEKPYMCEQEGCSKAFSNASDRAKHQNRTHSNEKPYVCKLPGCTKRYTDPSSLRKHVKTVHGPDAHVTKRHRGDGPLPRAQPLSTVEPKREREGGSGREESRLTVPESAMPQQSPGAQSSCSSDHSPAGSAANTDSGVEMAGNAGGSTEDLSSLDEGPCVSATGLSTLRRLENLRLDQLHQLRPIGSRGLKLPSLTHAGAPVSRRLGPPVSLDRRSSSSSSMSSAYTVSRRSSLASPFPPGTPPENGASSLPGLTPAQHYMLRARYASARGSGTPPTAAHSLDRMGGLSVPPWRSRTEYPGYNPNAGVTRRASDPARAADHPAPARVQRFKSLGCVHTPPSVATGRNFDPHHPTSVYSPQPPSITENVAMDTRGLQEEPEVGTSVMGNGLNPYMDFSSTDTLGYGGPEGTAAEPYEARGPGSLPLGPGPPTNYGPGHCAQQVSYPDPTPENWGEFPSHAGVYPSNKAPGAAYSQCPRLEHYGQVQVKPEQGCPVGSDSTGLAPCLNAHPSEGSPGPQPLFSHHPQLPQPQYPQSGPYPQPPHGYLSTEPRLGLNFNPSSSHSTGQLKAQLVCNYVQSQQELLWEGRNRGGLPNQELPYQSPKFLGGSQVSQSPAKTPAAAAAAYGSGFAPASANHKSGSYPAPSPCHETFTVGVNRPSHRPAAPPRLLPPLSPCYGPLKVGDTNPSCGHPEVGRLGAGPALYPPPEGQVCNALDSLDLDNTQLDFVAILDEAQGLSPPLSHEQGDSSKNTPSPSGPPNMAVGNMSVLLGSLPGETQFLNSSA

[14] = Inhibition of Hedgehog signaling in […] Shh-L2 cells; assay type: functional, cell-based
Mus musculus [15] = organism: Mus musculus; assay: Reduction of Gil1 mRNA levels at 10 uM in Ptch deficient mouse embryonic fibroblast; assay type: functional
Mus musculus [16] = organism: Mus musculus; assay: Reduction of Ptch1-lacZ level in mouse embryonic fibroblast by luminometric assay; assay type: functional
HEK293 [17] = assay: Inhibition of beta galactosidase in HEK293 cells; assay type: cell-based; settings: Homo sapiens
[18] = Reduction in expression of Hedgehog target gene Gli1 in Sufu deficient mouse embryonic fibroblast; assay type: functional
MEF = assay: Reduction in expression of Hedgehog target gene Hip1 in Sufu deficient mouse MEF cells; assay type: functional, cell-based
NIH3T3 [19] = assay: Inhibition of Hedgehog/Gli1 mediated transformation in mouse NIH3T3 cells at 10 uM; assay type: functional, cell-based
PANC-1 [20] = assay: Reduction in GLI1 expression in human PANC1 cells at 5 uM; assay type: functional, cell-based
PANC-1 [21] = assay: Reduction in PTCH expression in human PANC1 cells at 5 uM; assay type: functional, cell-based
[22] = Reduction in GlI1 expression in human 22Rv cells at 5 uM; assay type: functional, cell-based
[23] = Reduction in PTCH expression in human 22Rv cells at 5 uM; assay type: functional, cell-based
HepG2 [24] = assay: Inhibition of Gli1 dependent growth of human HepG2 cells at 5 uM; assay type: functional; parameters: scale not given: the % may be the effect or the level left
Jurkat [25] = assay: Inhibition of Gli1 dependent growth of human Jurkat cells at 5 uM; assay type: functional; parameters: scale not given: the % may be the effect or the level left
PANC-1 [26] = assay: Inhibition of Gli1 dependent growth of human PANC1 cells at 5 uM; assay type: functional; parameters: scale not given: the % may be the effect or the level left
[27] = Inhibition of Gli1 dependent growth of human 22Rv cells at 5 uM; assay type: functional; parameters: scale not given: the % may be the effect or the level left
Homo sapiens = assay: Antitumor activity in GLI1 positive human 22Rv cells xenografted mouse model at 50 mg/kg, sc after 18 days; assay type: functional, organism-based; parameters: dose 50 mg/kg
HepG2 [28] = assay: Induction of apoptosis in human HepG2 cells assessed as caspase3/7 cleavage by luminometric assay; assay type: functional, cell-based
CWR22R = assay: Induction of apoptosis in human 22Rv1 cells assessed as caspase3/7 cleavage by luminometric assay; assay type: functional, cell-based
Jurkat [29] = assay: Induction of apoptosis in human Jurkat cells assessed as caspase3/7 cleavage by luminometric assay; assay type: functional, cell-based
HEK293 [30] = assay: Induction of apoptosis in HEK293 cells assessed as caspase3/7 cleavage by luminometric assay; assay type: functional, cell-based; settings: Homo sapiens
DU146 = assay: Induction of apoptosis in human […] cells assessed as caspase3/7 cleavage by luminometric assay; assay type: functional, cell-based
NIH3T3 [31] = assay: Induction of apoptosis in mouse NIH3T3 cells assessed as caspase3/7 cleavage by luminometric assay; assay type: functional, cell-based
Mus musculus [32] = organism: Mus musculus; assay: Antiproliferative activity against mouse embryonic fibroblast at 10 uM assessed as microarray method; assay type: functional
NIH3T3 [33] = assay: Cytotoxicity against mouse NIH3T3 cells at 10 uM after 48 hrs assessed as reduction in cell viability by MTS assay; assay type: functional, cell-based
Mus musculus [34] = organism: Mus musculus; assay: Cytotoxicity against wild type mouse embryonic fibroblast at 10 uM after 48 hrs assessed as reduction in cell viability by MTS assay; assay type: functional
HepG2 [35] = assay: Cytotoxicity against human HepG2 cells at 10 uM after 48 hrs assessed as reduction in cell viability by MTS assay; assay type: functional, cell-based

Sequence of Zinc finger protein GLI2 (Homo sapiens) (P10070 whole entry): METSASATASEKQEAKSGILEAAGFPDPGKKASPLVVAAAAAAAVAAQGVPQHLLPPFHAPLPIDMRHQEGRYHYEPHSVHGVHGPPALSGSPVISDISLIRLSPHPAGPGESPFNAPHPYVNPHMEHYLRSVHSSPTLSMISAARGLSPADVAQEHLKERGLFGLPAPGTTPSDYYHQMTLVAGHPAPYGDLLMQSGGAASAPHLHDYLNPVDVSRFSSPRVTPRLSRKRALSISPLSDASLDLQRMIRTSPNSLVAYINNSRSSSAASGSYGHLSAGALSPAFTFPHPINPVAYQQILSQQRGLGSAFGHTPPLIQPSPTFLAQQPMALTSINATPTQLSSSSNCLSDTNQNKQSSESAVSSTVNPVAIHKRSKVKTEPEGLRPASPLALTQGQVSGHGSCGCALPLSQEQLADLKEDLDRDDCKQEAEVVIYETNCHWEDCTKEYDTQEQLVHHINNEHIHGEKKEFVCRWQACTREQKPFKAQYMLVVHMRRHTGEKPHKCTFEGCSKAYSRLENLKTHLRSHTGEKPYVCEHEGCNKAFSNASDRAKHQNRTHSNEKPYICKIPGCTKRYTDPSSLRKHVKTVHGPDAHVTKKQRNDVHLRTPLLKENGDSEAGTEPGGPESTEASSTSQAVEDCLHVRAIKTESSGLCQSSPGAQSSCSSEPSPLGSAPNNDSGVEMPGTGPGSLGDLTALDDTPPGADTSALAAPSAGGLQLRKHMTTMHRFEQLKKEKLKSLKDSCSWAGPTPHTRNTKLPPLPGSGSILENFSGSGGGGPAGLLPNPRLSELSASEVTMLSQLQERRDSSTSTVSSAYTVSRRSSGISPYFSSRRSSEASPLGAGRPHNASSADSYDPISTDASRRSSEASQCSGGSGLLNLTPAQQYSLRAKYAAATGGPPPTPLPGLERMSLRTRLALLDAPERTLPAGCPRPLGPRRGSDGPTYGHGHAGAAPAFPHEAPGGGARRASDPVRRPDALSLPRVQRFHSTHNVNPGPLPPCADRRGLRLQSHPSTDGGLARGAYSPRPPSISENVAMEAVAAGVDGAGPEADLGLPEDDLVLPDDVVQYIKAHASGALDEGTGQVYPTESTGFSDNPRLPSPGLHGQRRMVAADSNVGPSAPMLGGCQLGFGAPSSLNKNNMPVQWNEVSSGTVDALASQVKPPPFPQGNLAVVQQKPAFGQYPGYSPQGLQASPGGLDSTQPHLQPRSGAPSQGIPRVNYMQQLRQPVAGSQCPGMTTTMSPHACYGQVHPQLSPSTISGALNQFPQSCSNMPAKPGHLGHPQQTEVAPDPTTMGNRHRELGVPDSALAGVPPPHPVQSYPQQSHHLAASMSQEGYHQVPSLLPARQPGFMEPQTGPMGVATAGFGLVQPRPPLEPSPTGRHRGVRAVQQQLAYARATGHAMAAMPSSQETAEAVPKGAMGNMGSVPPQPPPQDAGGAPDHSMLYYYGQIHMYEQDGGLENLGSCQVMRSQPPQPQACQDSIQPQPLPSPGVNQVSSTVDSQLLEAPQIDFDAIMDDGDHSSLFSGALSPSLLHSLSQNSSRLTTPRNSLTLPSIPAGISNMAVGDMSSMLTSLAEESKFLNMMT

Activity [2] | Activity [3] | Activity [11] | Activity [12] | Activity [13] | pIC50 [14] | Compound | Activity [1] | Activity (HEK293 [4]) | Activity (HEK293 [5]) | Activity (NIH3T3 [6]) | Activity (NIH3T3 [7]) | Activity (NIH3T3 [8]) | Activity (NIH3T3 [9]) | Activity [10] | Activity (Mus musculus [15]) | Activity (Mus musculus [16]) | Activity (HEK293 [17]) | Activity [18] | Activity (MEF) | Activity (NIH3T3 [19]) | further results
inactive | inactive | Active | Active | Active | 5.30 | c1cc(-c2sc(-c3ccncc3)c(-c3ccncc3)c2-c2ccncc2)ccn1 | Active | Active | Active | inactive | inactive | inactive | inactive | 40% | Active | Active | Active | Active | Active | Active | Activity (PANC-1 [20]): Active; Activity (PANC-1 [21]): Active; Activity [22]: Active; Activity [23]: Active; Activity (HepG2 [24]): 0%; Activity (Jurkat [25]): 0%; Activity (PANC-1 [26]): 40%; Activity [27]: 40%; Activity (Homo sapiens): Active; Activity (HepG2 [28]): inactive; Activity (CWR22R): inactive; Activity (Jurkat [29]): inactive; Activity (HEK293 [30]): inactive; Activity (DU146): inactive; Activity (NIH3T3 [31]): inactive
– | – | – | – | – | – | CC1=C2C[C@H]3[C@@H](CC=C4C[C@@H](O)CC[C@@]43C)[C@@H]2CC[C@]12O[C@@H]1C[C@H](C)CN[C@H]1[C@H]2C [CYCLOPAMINE] | Active | – | – | – | – | – | – | 40% | Active | Active | Active | inactive | inactive | – | –
inactive | inactive | Active | Active | Active | 5.30 | CN(C)c1ccccc1CN1CCCN(Cc2ccccc2N(C)C)C1c1ccncc1 | Active | Active | Active | inactive | inactive | inactive | inactive | 40% | Active | Active | Active | Active | Active | Active | Activity (Mus musculus [32]): Active; Activity (NIH3T3 [33]): inactive; Activity (Mus musculus [34]): inactive; Activity (HepG2 [35]): inactive; Activity (PANC-1 [20]): Active; Activity (PANC-1 [21]): Active; Activity [22]: Active; Activity [23]: Active; Activity (HepG2 [24]): 0%; Activity (Jurkat [25]): 0%; Activity (PANC-1 [26]): 40%; Activity [27]: 40%; Activity (Homo sapiens): Active; Activity (HepG2 [28]): inactive; Activity (CWR22R): inactive; Activity (Jurkat [29]): inactive; Activity (HEK293 [30]): inactive; Activity (DU146): inactive; Activity (NIH3T3 [31]): inactive
